pIC50: −log10 of the molar value. Where two headings read alike, the source gives them in different places.
Key:
Type in all cases: cell-based
[1] = target: M3 (Homo sapiens, UniProt P20309); experiment: In vitro functional assay of muscarinic acetylcholine receptor activity, M3; conditions: antagonist IC50 at M3; read-out: M3 IC50
Description: [The procedure below names another target; the source lists this target under the same test.] (§1) CHO-K1 cells stably expressing human M1 receptor with Aequorin (Perkin Elmer) were grown in F12 media, 10% FBS with 0.4 mg/mL geneticin and […]. Cells were grown to confluence and frozen down to be assayed at a later date. On the day of the experiment cells were thawed in a 37° C. water bath, resuspended in DMEM/HAM's F12 with HEPES (Invitrogen)+0.1% protease-free BSA (assay buffer), and spun down to remove freezing media. After centrifugation, supernatant was removed and 12 mL of assay buffer was added. Coelenterazine h (Promega) was added to the cells at a final concentration of 5 uM and incubated for 4 hours at room temperature in the dark. Compound master plate-96 deep well (Corning) were formatted in a 8-point DRC in assay buffer with 0.2% DMSO at a starting concentration of 60 uM (2×). After 4 hours of incubation, cells were plated at a concentration of 5×10^5 cells/well in 96 well white-walled, tissue culture-treated, clear-bottom plates (VWR). Compounds were added to the daughter plate, and cells plus compound were incubated at room temperature for 30 minutes in the dark.
(§2) Calcium flux was measured using the FlexStation 3 (Molecular Devices). To measure the antagonist dose-response, the EC80 of Acetylcholine was injected to the daughter plate using the automated compound transfer function of the Flex Station, and the increase in luminescence was measured over time. Antagonist activity was analyzed as a concentration dependent decrease in the EC80 acetylcholine response. Dose response curves were generated using Prism (GraphPad Software). The IC50 of the compounds was calculated from the dose response curve.

[2] = target: T1, human M1 receptor (Homo sapiens, UniProt P11229); experiment: In vitro functional assay of muscarinic acetylcholine receptor activity (aequorin calcium flux, antagonist mode vs EC80 acetylcholine), M1
T1 sequence (P11229 1-460): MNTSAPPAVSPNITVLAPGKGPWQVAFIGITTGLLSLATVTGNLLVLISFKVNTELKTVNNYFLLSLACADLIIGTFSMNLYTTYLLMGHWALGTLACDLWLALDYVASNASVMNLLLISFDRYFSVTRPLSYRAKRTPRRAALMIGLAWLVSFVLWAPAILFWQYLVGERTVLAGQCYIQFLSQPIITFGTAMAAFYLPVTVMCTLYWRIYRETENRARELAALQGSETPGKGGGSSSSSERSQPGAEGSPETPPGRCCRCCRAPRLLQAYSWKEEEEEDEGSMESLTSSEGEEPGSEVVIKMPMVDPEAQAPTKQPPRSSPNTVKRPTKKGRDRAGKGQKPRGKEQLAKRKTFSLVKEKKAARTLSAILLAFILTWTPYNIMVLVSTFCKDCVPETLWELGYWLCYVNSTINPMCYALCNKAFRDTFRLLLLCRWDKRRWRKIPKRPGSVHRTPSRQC
Description: as §1, §2

[3] = target: T2, M2 (Homo sapiens, UniProt P08172); experiment: In vitro functional assay of muscarinic acetylcholine receptor activity, M2; conditions: antagonist IC50 at M2; read-out: M2 IC50
T2 sequence (P08172 1-466): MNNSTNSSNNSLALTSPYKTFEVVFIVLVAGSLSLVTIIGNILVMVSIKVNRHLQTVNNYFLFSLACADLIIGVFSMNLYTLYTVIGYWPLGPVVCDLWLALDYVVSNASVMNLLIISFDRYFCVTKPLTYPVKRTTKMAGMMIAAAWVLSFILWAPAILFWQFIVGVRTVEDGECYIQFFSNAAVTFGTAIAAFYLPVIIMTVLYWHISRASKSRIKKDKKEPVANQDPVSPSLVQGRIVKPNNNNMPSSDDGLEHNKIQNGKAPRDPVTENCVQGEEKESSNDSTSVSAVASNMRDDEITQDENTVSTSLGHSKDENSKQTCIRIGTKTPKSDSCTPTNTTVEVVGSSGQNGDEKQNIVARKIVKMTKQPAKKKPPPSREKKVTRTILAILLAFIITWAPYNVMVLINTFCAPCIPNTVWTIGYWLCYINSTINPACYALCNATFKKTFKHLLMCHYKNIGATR
Description: [The procedure below names another target; the source lists this target under the same test.] as §1, §2

[4] = CHO-K1 cells stably expressing human M1 receptor with Aequorin, decrease in EC80 acetylcholine response, read-out: M1 IC50

M3, sequence (P20309 whole entry): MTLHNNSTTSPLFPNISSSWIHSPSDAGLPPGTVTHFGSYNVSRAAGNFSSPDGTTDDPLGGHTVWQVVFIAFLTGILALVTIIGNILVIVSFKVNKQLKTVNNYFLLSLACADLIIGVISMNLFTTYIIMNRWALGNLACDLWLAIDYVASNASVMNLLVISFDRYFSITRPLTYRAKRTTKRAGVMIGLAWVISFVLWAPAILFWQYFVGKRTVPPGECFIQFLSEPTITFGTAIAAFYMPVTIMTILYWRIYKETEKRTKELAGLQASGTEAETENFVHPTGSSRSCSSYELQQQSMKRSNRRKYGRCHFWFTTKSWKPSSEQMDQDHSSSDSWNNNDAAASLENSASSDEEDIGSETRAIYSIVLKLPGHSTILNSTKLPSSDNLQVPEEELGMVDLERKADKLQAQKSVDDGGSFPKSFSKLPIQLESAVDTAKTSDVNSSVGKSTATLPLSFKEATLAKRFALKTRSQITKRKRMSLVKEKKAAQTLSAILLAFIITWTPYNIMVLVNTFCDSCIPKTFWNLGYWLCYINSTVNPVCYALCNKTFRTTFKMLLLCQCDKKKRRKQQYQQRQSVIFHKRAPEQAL

Row | Structure (SMILES) | pIC50 [1] | pIC50 [2, 4] | pIC50 [3] | pIC50 [2]
1 | O=C(CCS(=O)(=O)c1cccc2ncsc12)N1CCN(c2ccncc2F)CC1 [Example 16, 3-(benzo[d]thiazol-7-ylsulfonyl)-1-(4-(3-fluoropyridin-4-yl)piperazin-1-yl)propan-1-one] | < 5.00 | 6.00 to 7.00 | 5.00 to 6.00 | –
2 | COc1cnc2cccc(S(=O)(=O)CCCC(=O)N3CCN(c4ncc(F)cc4C)C[C@@H]3C)c2c1 [Example 17, (S)-1-(4-(5-fluoro-3-methylpyridin-2-yl)-2-methylpiperazin-1-yl)-4-((3-methoxyquinolin-5-yl)sulfonyl)butan-1-one] | 5.00 to 6.00 | 6.00 to 7.00 | 6.00 to 7.00 | –
3 | Cc1cc(F)cnc1N1CCN(C(=O)CCS(=O)(=O)c2cccc3ncsc23)[C@@H](C)C1 [Example 18, 3-(1,3-benzothiazole-7-sulfonyl)-1-[(2S)-4-(5-fluoro-3-methylpyridin-2-yl)-2-methylpiperazin-1-yl]propan-1-one] | 5.00 to 6.00 | > 7.00 | 5.00 to 6.00 | –
4 | C[C@@H]1CN(c2ccncc2Cl)CCN1C(=O)CCS(=O)(=O)c1cccc2ncsc12 [Example 19, 3-(1,3-benzothiazole-7-sulfonyl)-1-[(2R)-4-(3-chloropyridin-4-yl)-2-methylpiperazin-1-yl]propan-1-one] | < 5.00 | > 7.00 | 6.00 to 7.00 | –
5 | C[C@H]1CN(c2ccnc(N)c2)CCN1C(=O)CCS(=O)(=O)c1cccc2ncsc12 [Example 21, (S)-1-(4-(2-aminopyridin-4-yl)-2-methylpiperazin-1-yl)-3-(benzo[d]thiazol-7-ylsulfonyl)propan-1-one] | 5.00 to 6.00 | > 7.00 | 6.00 to 7.00 | –
6 | O=C(CCS(=O)(=O)c1cccc2ncsc12)N1CCC(c2ccc(C(F)(F)F)cn2)CC1 [Example 22, 3-(1,3-benzothiazole-7-sulfonyl)-1-[4-[5-(trifluoromethyl)pyridin-2-yl]piperidin-1-yl]propan-1-one] | 5.00 to 6.00 | 6.00 to 7.00 | 5.00 to 6.00 | –
7 | C[C@@H]1CN(c2ccc(F)c(C#N)c2)CCN1C(=O)CCCc1cccc2ncccc12 [Example 23, (R)-2-fluoro-5-(3-methyl-4-(4-(quinolin-5-yl)butanoyl)piperazin-1-yl)benzonitrile] | 5.00 to 6.00 | > 7.00 | 5.00 to 6.00 | –
8 | N#Cc1ccc(N2C3CCC2CN(C(=O)CCS(=O)(=O)c2cccc4ncsc24)C3)nc1 [Example 24, 6-{3-[3-(1,3-benzothiazole-7-sulfonyl)propanoyl]-3,8-diazabicyclo[3.2.1]octan-8-yl}pyridine-3-carbonitrile] | 6.00 to 7.00 | – | 6.00 to 7.00 | > 7.00
9 | Cc1cc(C#N)ncc1N1CCN(C(=O)CCS(=O)(=O)c2cccc3ncsc23)[C@@H](C)C1 [Example 25, 5-[(3S)-4-[3-(1,3-benzothiazole-7-sulfonyl)propanoyl]-3-methylpiperazin-1-yl]-4-methylpyridine-2-carbonitrile] | < 5.00 | > 7.00 | 6.00 to 7.00 | –
10 | C[C@H]1CN(c2c[nH]c(=O)cc2Cl)CCN1C(=O)CCS(=O)(=O)c1cccc2ncsc12 [Example 26, 5-[(3S)-4-[3-(1,3-benzothiazole-7-sulfonyl)propanoyl]-3-methylpiperazin-1-yl]-4-chloro-1,2-dihydropyridin-2-one] | < 5.00 | 6.00 to 7.00 | < 5.00 | –
11 | N#Cc1ccc(C2=CC3CCC2CN3C(=O)CCS(=O)(=O)c2cccc3ncsc23)nc1 (stereo not drawn) [Example 27, 6-{2-[3-(1,3-benzothiazole-7-sulfonyl)propanoyl]-2-azabicyclo[2.2.2]oct-5-en-5-yl}pyridine-3-carbonitrile] | 5.00 to 6.00 | > 7.00 | 6.00 to 7.00 | –
12 | N#Cc1ccc(C2CC3CCC2CN3C(=O)CCS(=O)(=O)c2cccc3ncsc23)nc1 (stereo not drawn) [Example 28, 6-[2-[3-(1,3-benzothiazole-7-sulfonyl)propanoyl]-2-azabicyclo[2.2.2]octan-5-yl]pyridine-3-carbonitrile] | 5.00 to 6.00 | > 7.00 | 6.00 to 7.00 | –
13 | N#Cc1ccc(N2C3CCC2CN(C(=O)CCNCc2cccc4ncsc24)C3)nc1 [Example 29, 6-[3-(3-{[(1,3-benzothiazol-7-yl)methyl]amino}propanoyl)-3,8-diaza-bicyclo[3.2.1]octan-8-yl]pyridine-3-carbonitrile] | 5.00 to 6.00 | – | 5.00 to 6.00 | > 7.00
14 | N#Cc1ccc(N2C3CCC2CN(C(=O)C2CC(NCc4cccc5ncsc45)C2)C3)nc1 (stereo not drawn) [Example 30, 6-[3-(3-{[(1,3-benzothiazol-7-yl)methyl]amino}cyclobutanecarbonyl)-3,8-diazabicyclo[3.2.1]octan-8-yl]pyridine-3-carbonitrile] | < 5.00 | – | 5.00 to 6.00 | 6.00 to 7.00
15 | N#Cc1ccc(N2C3CCC2CN(C(=O)C2CC(Cc4cccc5ncsc45)C2)C3)nc1 (stereo not drawn) [Example 31, 6-(3-{3-[(1,3-benzothiazol-7-yl)methyl]cyclobutanecarbonyl}-3,8-diazabicyclo[3.2.1]octan-8-yl)pyridine-3-carbonitrile] | 5.00 to 6.00 | – | 5.00 to 6.00 | > 7.00
16 | O=C(CCS(=O)(=O)c1cccc2ncsc12)N1CCC2(c3ccc(C(F)(F)F)cn3)CC2C1 (stereo not drawn) [Example 32, 3-(1,3-benzothiazole-7-sulfonyl)-1-{6-[5-(trifluoromethyl)pyridin-2-yl]-3-azabicyclo[4.1.0]heptan-3-yl}propan-1-one] | 5.00 to 6.00 | 6.00 to 7.00 | 5.00 to 6.00 | –
17 | N#Cc1ccc(N2C3CCC2CN(C(=O)CCNCc2cccc4ncnn24)C3)nc1 [Example 33, 6-(3-{3-[({[1,2,4]triazolo[1,5-a]pyridin-5-yl}methyl)amino]propanoyl}-3,8-diazabicyclo[3.2.1]octan-8-yl)pyridine-3-carbonitrile] | < 5.00 | – | 5.00 to 6.00 | > 7.00
18 | N#Cc1ccc(N2C3CCC2CN(C(=O)CCNCc2c(F)ccc4nccn24)C3)nc1 [Example 34, 6-(3-{3-[({6-fluoroimidazo[1,2-a]pyridin-5-yl}methyl)amino]propanoyl}-3,8-diazabicyclo[3.2.1]octan-8-yl)pyridine-3-carbonitrile] | 5.00 to 6.00 | – | 5.00 to 6.00 | > 7.00
19 | N#Cc1ccc(N2C3CCC2CN(C(=O)CCN(Cc2cccc4ncsc24)C2CC2)C3)nc1 [Example 35, 6-[3-(3-{[(1,3-benzothiazol-7-yl)methyl](cyclopropyl)amino}propanoyl)-3,8-diazabicyclo[3.2.1]octan-8-yl]pyridine-3-carbonitrile] | 6.00 to 7.00 | – | 6.00 to 7.00 | > 7.00
20 | [2H]C([2H])(NCCC(=O)N1CC2CCC(C1)N2c1ccc(C#N)cn1)c1cccc2ncsc12 [Example 36, 6-[3-(3-[(benzo[d]thiazol-7-ylmethyl-d2)amino]propanoyl)-3,8-diazabicyclo[3.2.1]octan-8-yl]pyridine-3-carbonitrile] | 5.00 to 6.00 | – | 5.00 to 6.00 | > 7.00
21 | N#Cc1ccc(N2C3CCC2CN(C(=O)CCOCc2cccc4nccnc24)C3)nc1 [Example 37, 6-(3-{3-[(quinoxalin-5-yl)methoxy]propanoyl}-3,8-diazabicyclo[3.2.1]octan-8-yl)pyridine-3-carbonitrile] | < 5.00 | – | 5.00 to 6.00 | > 7.00
22 | N#Cc1ccc(N2[C@@H]3CC[C@H]2CN(C(=O)COCc2cccc4nccnc24)C3)nc1 [Example 38, 6-((1R, 5S)-3-(2-(quinoxalin-5-ylmethoxy)acetyl)-3,8-diazabicyclo[3.2.1]octan-8-yl)nicotinonitrile] | 5.00 to 6.00 | – | 6.00 to 7.00 | > 7.00
